Data as given in a melting point compilation (Tetko et al.; mined from patent text by program, amines drawn as free bases though some values may be those of a salt).

| melting point [°C] | SMILES |
| --- | --- |
| 226 | COc1ccc(C(F)(F)F)cc1-n1c(=O)[nH]c2cc(C(F)(F)F)ccc21 |
| 129 to 130 | CNC(=O)C(=O)c1ccccc1COc1cc(C)ccc1C |
| 162 to 163 | COc1ccc(CN2C(=O)C(c3cc(C#N)c(O)cc3O)c3ccccc32)cc1 (centres undefined) |
| 177 to 179 | O=C(O)c1ccc2c(=O)[nH]c(=O)n(CCCCN3CCC(OC(c4ccccc4)c4ccccc4)CC3)c2c1 |
| 72 to 74 | CCOC(=O)c1ccc(C(=O)CC(O)(c2cc(Cl)cc(Cl)c2)C(F)(F)F)cc1C (centres undefined) |
| 193 to 195 | O=C1C2=C(CCCC2)C(=O)N1c1ccc(Cl)c2c1CC(CO)O2 (centres undefined) |
| 272 to 274 | Cc1c(CN2CCOCC2)ccc2c1-c1[nH]nc(-c3ccsc3)c1C2 |
| 44 to 46 | O=C(c1c(F)cccc1F)N1COCN(c2ccc(SC(F)(F)C(F)(F)C(F)(F)F)cc2F)C1=O |
| 168 | COC(C)CC(=O)NC1CCC(CCN2CCN(c3nccc4c3OCC4)CC2)CC1 (racemic) |
| 103 | O=C(c1cc(=O)c2cc(O)ccc2[nH]1)N1CCC(OCc2ccccc2)CC1 |
| 142 | O=C(c1ccc(Cl)cc1)c1cc([N+](=O)[O-])ccc1N1CCC(O)CC1 |
| 162 to 164 | CC(C)(C)c1cc(C=C2SCN(C3CC3)C2=O)cc(C(C)(C)C)c1O |
| 152 to 154 | CC(=Cc1ccccc1)COc1cc(C)c(NC=O)c(C)c1C |
| 153 to 155 | CCOC(=O)C1=C(C)NC(=S)N(C(=O)OCC)C1c1ccccc1OCc1ccccc1 (centres undefined) |
| 68 to 71 | Cc1cc(SC2=C(O)CC(CCC3CCCC3)(C3CCCC3)OC2=O)c(C(C)(C)C)cc1CO (centres undefined) |
| 116 to 118 | CC(O)(c1ccc(F)cc1)C1CCN(CCCC(=O)c2ccc(F)cc2)CC1 (centres undefined) |
| 123 | COc1ccc(C(=O)C=Cc2ccccc2O)c(OC)c1OC |
| 188 to 190 | CS(=O)(=O)c1cc(C(=O)N=C(N)N)ccc1C1C=CCC1 (centres undefined) |
| 150 to 152 | N=C(Nc1ccc2c(c1)CNCCO2)c1ccsc1 |
| 77 to 79 | CC(C)(C)OC(=O)N[C@@H](CC1CCCCC1)[C@@H](O)CCO |
| 208 to 209 | COc1ccc(C)cc1NC(=O)Nc1ccc(N2CCN(C(=O)C3CCCCC3C)CC2)cc1 (centres undefined) |
| 199 to 200 | COc1cccc(N2CCN(S(=O)(=O)c3ccc(/C=C/C(=O)NO)cc3)CC2)c1 |
| 178 to 180 | COc1cc(-c2csc(C(N)=O)n2)cc(Cl)c1OC |
| 97 to 99 | CC(C)[C@@H]1C[C@H](O)[C@H](CC2CCCCC2)NC1=O |

| melting point [°C] | SMILES |
| --- | --- |
| 196 to 197 | CC1(C)CCC(C)(C)c2cc(C(N)C(=O)Nc3ccc(C(=O)OCc4ccccc4)cc3)ccc21 (centres undefined) |
| 115 to 117 | CCOC(=O)C(C)(C)c1cn2nc(NCCCN3CCC(NC(c4ccccc4)c4ccccc4)CC3)ccc2n1 |
| 182 to 183 | O=C(CCCN1C(=O)c2ccccc2C1=O)N1CCCC2=C1CCc1cc(Cl)ccc12 |
| 172 to 173 | COC(=O)c1cc(F)c(N2CCN(C(C)=O)CC2)nc1Nc1ccc(F)cc1F |
| 76 to 79 | Nc1ccccc1C(O)C1CC1 (centres undefined) |
| 90 | CN(C)CCOc1ccc(N2C(=O)C=C3CCCCC32)cc1 (centres undefined) |
| 287 to 290 | O=C1c2cc(F)cc(F)c2-n2c1nc1ccccc1c2=O |
| 268 | Cc1cc2ccccc2n2c(S)nnc12 |
| 195 to 196 | CC(C)(C)OC(=O)N1CCCC1c1ccnc(-c2nc(=O)c3ccccc3s2)c1 (centres undefined) |
| 129 to 130 | COc1ccc2c(C)c(CCN3CCN(c4ccccc4OC)CC3)c(=O)oc2c1 |
| 375 to 377 | Cc1cc2nc3ccc(C(N)=O)cn3c(=O)c2s1 |
| 167 to 169 | C/C(=N\OC(=O)C1CCN(C(=O)OC(C)(C)C)CC1)[C@H]1CC[C@H]2[C@@H]3CCC4=CC(=O)CC[C@]4(C)[C@H]3CC[C@]12C |
| 173 to 174 | CCOC(=O)c1ccc(/C=C(\C)c2ccc3c(c2)C(C)(C)C(=O)CC3(C)C)cc1 |
| 76 to 77 | CCOC(=O)CNC(=O)CCCCCNC(=O)OC(C)(C)C |
| 159 to 160 | Cc1nc(N2C[C@@H](C)N(Cc3ccc(F)cc3)C2=O)sc1C(=O)NCc1cc(F)cc(F)c1 |
| 199 | COC(=O)c1c(C(C)C)c(S(=O)(=O)c2ccc(O)cc2)c2ccccn12 |
| 113 to 114 | CCCCCC(CC(=O)Nc1cc(CCC(N)=O)ccc1C(C)(C)C)c1ccc(OC)cc1OC (centres undefined) |
| 203 to 205 | Clc1ccc2nc(-c3ccsc3)cn2n1 |
| 222 to 223 | CO[C@H]1CN(c2c(F)c(N)c3c(=O)c(C(=O)O)cn(C4CC4)c3c2F)C[C@H]1N (relative stereo) |
| 83 to 89 | CN(C)CC1CCc2cc(OCc3ccc([N+](=O)[O-])cc3)ccc2C1 (centres undefined) |
| 120 to 121 | CCOP(=O)(CNC(Cc1ccc(Cl)cc1)c1cc(C(C)(C)C)c(O)c(C(C)(C)C)c1)OCC (centres undefined) |
| 99 to 100 | COC(=O)c1cc2c(Oc3ccc(Cl)cc3)cncc2s1 |
| 94 to 97 | CCCC=Cc1c(C(C)C)nc(C(C)C)c(CO)c1-c1cccc(C)c1 |

Further lines, the molecule ahead of its results:

| SMILES | melting point [°C] |
| --- | --- |
| O=C(NC1CC=CC1)OCc1ccccc1 | 56 to 57 |
| COc1nsc(OCCC#CI)c1C#N | 71 to 73 |
| CN1C(c2ccc(F)cc2)=NC(C(F)(F)F)(C(F)(F)F)C1CC(=O)c1ccc(F)cc1 (centres undefined) | 145 to 147 |
| CCOC(=O)c1ccc2nccc(O)c2c1 | 233 to 234 |
| COc1ccc2c(c1)c(/C=C/C(=O)c1ccncc1)cn2C | 178 to 182 |
| Cc1ccc(-c2ccc(/C=C/C(=O)O)s2)cc1 | 223 to 225 |
| O=C(Nc1nnco1)C(c1ccccc1)c1ccccc1 | 131 to 132 |
| N#Cc1ccc(NC(=O)NCCCN2CCN(CCCc3ccc(Cl)cc3)CC2)cc1 | 219 to 221 |
| O=C(C=Cc1ccccn1)N1CCc2c([nH]c3ccccc23)C1c1ccc2c(c1)OCO2 (centres undefined) | 135 to 141 |
| CSC1CCN(C(=O)CCSC(C)=O)C1C(=O)O (centres undefined) | 153 to 157 |
| N#Cc1cc(-c2ccccc2)[nH]c1Sc1ccncc1 | 172 to 174 |
| COCCCn1c(C=O)c(Br)c2c3c(c(-c4ccccc4Cl)cc21)C(=O)NC3=O | 206 to 207 |
| CCOC(=O)C(=CNc1ccc(F)c(N2CCN(C(C)=O)CC2)n1)C(=O)OCC | 164 to 165 |
| COc1ccc(C(=O)Nc2ccccc2C(O)c2ccccn2)cc1 (centres undefined) | 128 |
| O=C(c1ccccc1)N1CCCc2ncc3ccccc3c21 | 208 to 210 |
| Cc1nc(N2CCNCC2)c2nc(-c3ccccc3)cc-2[nH]1 | 236 |
| COc1ccc2c(c1)CC(=O)N2Nc1ccncc1 | 169 to 171 |
| COc1ccc(CCc2oc3cccc(O)c3c2C)cc1 | 72 to 75 |
| CCOC(=O)CCCNCc1nn2c(-c3ccc(OC)cc3)nnc2c2ccccc12 | 103 to 105 |
| CCC(=O)Nc1cc(S(=O)c2ccccc2)ccc1NC(=NC(=O)OC)NC(=O)OC (centres undefined) | 193 to 195 |
| CCOC(=O)C(NC(=O)N1CCc2cc(S(=O)(=O)N3CCN(c4cccc(Cl)c4)CC3)ccc21)C(C)C (centres undefined) | 143 to 144 |
| O=C(Nc1ccccc1)O[C@@H]1CN=C(c2cccs2)O[C@H]1c1ccccc1 (racemic) | 98 |
| O=C1NC(=S)NC(=O)C1c1ccccc1F | > 240 |
| Cn1ccnc1CC(O)C(F)(F)F (centres undefined) | 146 to 148 |
| CC(C)(C)C(=O)SCCNC(=O)CCNC(=O)OCc1ccccc1 | 87 to 88 |
| OC[C@@H](O)[C@@H](c1cccc(Br)c1)N1CCc2cccc(OCc3ccccc3)c21 | 61 to 66 |

| SMILES | melting point [°C] |
| --- | --- |
| CN(Cc1ccccc1)c1cc(Oc2cccc(C(F)(F)F)c2)nc(C(=O)Nc2ccccc2)c1 | 111 to 114 |
| Cc1ccc(-c2noc(C(F)F)c2-c2ccc(S(N)(=O)=O)cc2)cc1 | 169 to 172 |
| CCCCCCC(N)C(C)O (centres undefined) | 81 to 86 |
| COC(=O)C1=CC=CC(C(=O)OC)(N(c2ccccc2)c2ccc(-c3ccc(N(c4ccccc4)C4(C(=O)OC)C=CC=C(C(=O)OC)C4)cc3)cc2)C1 (centres undefined) | 136 to 141 |
| O=C(c1ccc(Oc2ccc(Oc3ccc(C(=O)C(Cl)(Cl)Cl)cc3)cc2)cc1)C(Cl)(Cl)Cl | 215 to 217 |
| CC(C)(CO)NCCCn1ccnc1 | 81 to 85 |
| Cc1cc(C)cc(-c2[nH]c3ccc(-c4nccs4)cc3c2CCN)c1 | 98.5 to 100 |
| CC(C)n1nc(-c2c(-c3ccccc3)nn3ccc(Oc4ccncc4)cc23)ccc1=O | 218 to 220 |
| CC(C)(C)NCC(O)COc1ccccc1-c1ccc(Cl)nn1 (centres undefined) | 93 to 94 |
| CN1CCN2c3ccc(Cl)cc3C(c3ccco3)=NCC2C1 (centres undefined) | > 240 |
| O=C(O)/C=C/C=C(c1cccc(C(F)(F)F)c1)c1cccc(C(F)(F)F)c1 | 110 to 112 |
| CCOC(=O)C1=C(C)NN=C(C(=O)OC)C1c1ccccc1[N+](=O)[O-] (centres undefined) | 168 to 169 |
| O=C(O)Cn1nc(Br)nc1Br | 147 to 152 |
| CC(C)Nc1c([N+](=O)[O-])cnn1-c1ncc(Cl)cc1Cl | 123 |
| O=C(CC1(O)CCC1)N[C@H]1CC[C@H](CCN2CCN(c3nccc4c3CCO4)CC2)CC1 | 155 |
| Cc1oc(-c2ccccc2)nc1CCOc1ccc(CC(C(=O)O)c2nc(-c3ccccc3)oc2C)cc1 (centres undefined) | 120 |
| CCN(CC)c1cccc(NC(=O)COC(C)=O)c1C#N | 50 to 51 |
| CC1CCC(C)C1C(=O)O (centres undefined) | 45 |
| Cc1nnc2n1-c1ccc(C#CCn3cnc4ccccc43)cc1C(c1ccccc1Cl)=NC2 | 165 to 168 |
| CCCCCCCCCCOc1ccc(O)c(C(=O)OC)c1 | 40 to 43 |
| COc1cccc(Cc2cc3ccc4ccccc4n3n2)c1 | 82 to 84 |
| O=C1NCC(Cc2cccc(Cl)c2)O1 (centres undefined) | 113 to 114 |
| CCN(CC)c1ccc(-c2nnc(Nc3ccc(Br)c(Cl)c3)s2)cc1 | 232 to 233 |
| Cc1cc(C)cc(S(=O)(=O)c2ccc([N+](=O)[O-])cc2)c1 | 179 to 180 |
| CCCn1nc2c(N)nc3ccccc3c2c1CCCc1cc(-c2cccnc2)no1 | 192 to 193 |
| CCCOc1ncc2c(=O)[nH]c(-c3ccccc3OCCC)nc2n1 | 157 to 158 |
